Test system: ERα and c-Rel
Assay: NF-κB-responsive reporters in COS cells transfected with ERα and c-Rel
Type: cell-based, human
Settings: COS cells (B), ERα + cRel transfected
Excerpt: This example describes an assay, based on the E-selectin or VCAM promoter in combination with ERα in the T24/ECV cell line. Note that for the ER/NF-κB transrepression assay the ECV304 cell line was used, which was believed to be the only endothelial cell line available that was suitable for producing stable ERα expressing clones. At a later stage ATCC reported that the ECV304 cells were no endothelial cells but, instead, were T24 bladder carcinoma cells. In order to enhance the cytokine induction and amount of repression by estrogens, multiple copies of NF-κB responsive regions of the E-Selectin and VCAM promoters were used to construct new reporters named ELAM1a, ELAM2, ELAM-HMG, VCAM1-2, VCAM2, and VCAM3 (for reporter details see appendix 1).
ECV304-ERα cells stably express ERα and endogenous c-Rel, whereas COS cells were transiently transfected with ERα, and, where indicated, c-Rel. Both cell types were co-transfected with the indicated E-selectin (ELAM) or VCAM promoter derived reporters.
Human osteosarcoma U-2 OS (HTB-96), monkey kidney COS-1 (CRL-1650) and human ECV304 (CRL-1998) cells have been obtained from ATCC (American Type Culture collection). ECV304 cells were sold by ATCC as human endothelial cells, however at a later stage ATCC informed us that this cell line was in fact the human bladder epithelial carcinoma cell line T24. Therefore, these cells are called T24/ECV in this report. ECV304/T24(-ERα), U-2 OS and COS-7 cells were grown in a 1:1 mixture of phenol red free Dulbecco's modified medium (DMEM) and Ham's F12 medium (=M505), supplemented with 10% fetal calf serum (FCS). Experiments were performed in M505+10% FCTS (fetal calf serum treated with dextran-coated charcoal to deplete serum from steroid activity).
The six NF-κB responsive reporters pHGL3-ELAM 1a, pHGL3-ELAM 2, pHGL3-ELAM HMG, pHGL3-VCAM 1-2, pHGL3-VCAM 2 and pHGL3-VCAM 3 (plasmid nr. 1921-1926 respectively) were constructed by ligating annealed primers in the Kpn I and Sac I sites of pHGL3-TATA. The primers were based on the NF-κB-RE sequences in the ELAM and the VCAM promoter (see Appendix 1). Several copies of the NF-κB-RE's were cloned in order the gain a higher absolute luciferase signal. The ELAM HMG construct contains a double repeat, while the other constructs contain three NF-κB -RE's. For primer and reporter sequences, see appendix 1.
For transient transfections, cells were seeded in 6-well plates (2.10^5 cells/well). After two or three days the cells were transfected with reporter, expression vectors and β-galactosidase control vector. Two different experimental settings were used. For testing transrepression of IL-1β induced promoter activity, cells were transfected with 1 μg reporter construct, 1 μg expression vector (containing either ERα, ERβ or GR), and 0.25 μg of β-galactosidase control plasmid. For testing transrepression in combination with c-Rel or ReLA overexpression, cells were transfected with 1 μg reporter construct, 1 μg expression vector (containing either ERα, ERβ or GR) and 0.1 or 1.0 μg expression vector containing c-Rel or RelA and 0.25 μg of β-galactosidase control vector. Equivalent amounts of DNA were obtained by adding the appropriate expression vector that lacks an insert. Transient transfection was performed using lipofectin reagent (Life Technologies). […] The transfected cells were incubated overnight with test compounds prior to cell lysis. Measurement of luciferase and P-galactosidase activity were performed using respectively the luciferase assay system (Promega) and Galacto-light plus (Tropix) according to the manufacturers' protocols and measured on the Victor 1420 multilabel counter, Wallac.

SMILES: C[C@]12CC[C@@H]3c4ccc(O)cc4CC[C@H]3[C@@H]1CC[C@@H]2O [Org E2, 17β-estradiol]
- luciferase activity, ELAM1a reporter: 7390 cps
- luciferase activity, ELAM2 reporter: 6223 cps
- luciferase activity, ELAM-HMG reporter: 61571 cps
- luciferase activity, ELAM− reporter: 90035 cps
- luciferase activity, VCAM1-2 reporter: 9107 cps
- luciferase activity, VCAM2 reporter: 4783 cps
- luciferase activity, VCAM3 reporter: 10781 cps
- luciferase activity, VCAM reporter: 51283 cps
